# According to patent publication US6525001B1, “Substituted pyrimidine and pyridine herbicides” (Mid-American Commercialization Corporation, priority 1997, dated 2003):
# Key:
# Format in all cases: in vivo
# [1] = test system: velvetleaf (Abutilon theophrasti); assay: Test C; parameters: key: 0 was no effect; 100 was complete control; conditions: PREEMERGENCE
# [2] = test system: fall panicum (Panicum dichotomiflorum); assay: Test C; parameters: key: 0 was no effect; 100 was complete control; conditions: PREEMERGENCE
# [3] = test system: field bindweed (Convolvulus arvensis); assay: Test C; parameters: key: 0 was no effect; 100 was complete control; conditions: PREEMERGENCE
# [4] = test system: cocklebur (Xanthium strumarium); assay: Test C; parameters: key: 0 was no effect; 100 was complete control; conditions: PREEMERGENCE
# [5] = test system: lambsquarters (Chenopodium album); assay: Test C; parameters: key: 0 was no effect; 100 was complete control; conditions: PREEMERGENCE
# [6] = test system: wild poinsettia (Euphorbia heterophylla); assay: Test C; parameters: key: 0 was no effect; 100 was complete control; conditions: PREEMERGENCE
# [7] = test system: large crabgrass (Digitaria sanguinalis); assay: Test C; parameters: key: 0 was no effect; 100 was complete control; conditions: PREEMERGENCE
# [8] = test system: hairy beggarticks (Bidens pilosa); assay: Test C; parameters: key: 0 was no effect; 100 was complete control; conditions: PREEMERGENCE
# [9] = test system: common ragweed (Ambrosia elatior); assay: Test C; parameters: key: 0 was no effect; 100 was complete control; conditions: PREEMERGENCE
# [10] = test system: johnsongrass (Sorghum halepense); assay: Test C; parameters: key: 0 was no effect; 100 was complete control; conditions: PREEMERGENCE
# [11] = test system: barnyardgrass (Echinochloa crus-galli); assay: Test A pre-/postemergence; parameters: key: 0 is no effect; 10 is complete control; conditions: 0 to 10 scale
# Protocol: (§1) Seeds of barnyardgrass (Echinochloa crus-galli), crabgrass (Digitaria spp.), morningglory (Ipomoea spp.), and velvetleaf (Abutilon theophrasti) were planted into a sandy loam soil and treated preemergence by soil drench with test chemicals formulated in a non-phytotoxic solvent mixture which includes a surfactant. At the same time, these crop and weed species were also treated postemergence sprayed to runoff, with test chemicals formulated in the same manner. Plants ranged in height from two to eighteen cm and were in the one to two leaf stage for the postemergence treatment. Treated plants and untreated controls were maintained in a greenhouse for approximately eleven days, after which all treated plants were compared to untreated controls and visually evaluated for injury. Plant response ratings, summarized in Table A, are based on a 0 to 10 scale where 0 is no effect and 10 is complete control. A dash (−) response means no test results.
# [12] = test system: crabgrass (Digitaria spp.); assay: Test A pre-/postemergence; parameters: key: 0 is no effect; 10 is complete control; conditions: 0 to 10 scale
# Protocol: as §1
# [13] = test system: velvetleaf (Abutilon theophrasti); assay: Test A pre-/postemergence; parameters: key: 0 is no effect; 10 is complete control; conditions: 0 to 10 scale
# Protocol: as §1
# [14] = test system: morningglory (Ipomoea spp.); assay: Test A pre-/postemergence; parameters: key: 0 is no effect; 10 is complete control; conditions: 0 to 10 scale
# Protocol: as §1
# [15] = PRE SOIL DRENCH, Rate 2000 g/ha
# [16] = postemergence SPRAYED TO RUNOFF, Rate 1000 g/ha
Compound,"Plant response rating, Velvetleaf ([1]; Rate 35 g/ha)","Plant response rating, Velvetleaf ([1]; Rate 70 g/ha)","Plant response rating, Velvetleaf ([1]; Rate 140 g/ha)","Plant response rating, Fall panicum ([2]; Rate 35 g/ha)","Plant response rating, Fall panicum ([2]; Rate 70 g/ha)","Plant response rating, Fall panicum ([2]; Rate 140 g/ha)","Plant response rating, Field bindweed ([3]; Rate 70 g/ha)","Plant response rating, Field bindweed ([3]; Rate 140 g/ha)","Plant response rating, Cocklebur ([4]; Rate 35 g/ha)","Plant response rating, Lambsquarters ([5]; Rate 35 g/ha)","Plant response rating, Lambsquarters ([5]; Rate 70 g/ha)","Plant response rating, Lambsquarters ([5]; Rate 140 g/ha)","Plant response rating, Barnyardgrass [11, 15]","Plant response rating, Barnyardgrass [11, 16]","Plant response rating, Crabgrass [12, 15]","Plant response rating, Crabgrass [12, 16]","Plant response rating, Velvetleaf [13, 15]","Plant response rating, Velvetleaf [13, 16]","Plant response rating, Morningglory [14, 15]","Plant response rating, Morningglory [14, 16]",also measured
Cc1cnc(-c2ccc(C(F)(F)F)cc2)nc1C(Cl)c1cccc(C(F)(F)F)c1 (racemic) [Compound 21],0,50,50,10,0,90,40,40,0,0,5,90,,,,,,,,,"Plant response rating, Cocklebur ([4]; Rate 70 g/ha): 0; Plant response rating, Cocklebur ([4]; Rate 140 g/ha): 0; Plant response rating, Wild poinsettia ([6]; Rate 35 g/ha): 0; Plant response rating, Wild poinsettia ([6]; Rate 70 g/ha): 5; Plant response rating, Wild poinsettia ([6]; Rate 140 g/ha): 5; Plant response rating, Large crabgrass ([7]; Rate 35 g/ha): 80; Plant response rating, Large crabgrass ([7]; Rate 70 g/ha): 100; Plant response rating, Large crabgrass ([7]; Rate 140 g/ha): 100; Plant response rating, H. beggarticks ([8]; Rate 35 g/ha): 0; Plant response rating, H. beggarticks ([8]; Rate 70 g/ha): 0; Plant response rating, H. beggarticks ([8]; Rate 140 g/ha): 40; Plant response rating, Common ragweed ([9]; Rate 35 g/ha): 0; Plant response rating, Common ragweed ([9]; Rate 70 g/ha): 0; Plant response rating, Common ragweed ([9]; Rate 140 g/ha): 20; Plant response rating, Johnsongrass ([10]; Rate 35 g/ha): 0; Plant response rating, Johnsongrass ([10]; Rate 70 g/ha): 0; Plant response rating, Johnsongrass ([10]; Rate 140 g/ha): 5"
Cc1cnc(-c2ccc(Cl)cc2)nc1Cn1ccc(C(F)(F)F)n1 [Compound 6],,,,,,,,,,,,,8,8,9,9,8,9,5,6,
Cc1cnc(-c2ccc(C(F)(F)F)cc2)nc1Cn1cc(I)cn1 [Compound 12],,,,,,,,,,,,,7,5,9,8,5,6,3,2,
Cc1cnc(-c2ccc(C(F)(F)F)cc2)nc1Cn1nc(C(F)(F)F)cc1C [Compound 13],,,,,,,,,,,,,9,6,10,9,9,8,3,2,
Cc1cnc(-n2cnc(C(F)(F)F)n2)nc1Cc1cccc(C(F)(F)F)c1 [Compound 43],100,100,100,100,100,100,100,100,0,100,100,100,,,,,,,,,"Plant response rating, Field bindweed ([3]; Rate 35 g/ha): 100; Plant response rating, Wild poinsettia ([6]; Rate 35 g/ha): 10; Plant response rating, Wild poinsettia ([6]; Rate 70 g/ha): 50; Plant response rating, Wild poinsettia ([6]; Rate 140 g/ha): 60; Plant response rating, Large crabgrass ([7]; Rate 35 g/ha): 100; Plant response rating, Large crabgrass ([7]; Rate 70 g/ha): 100; Plant response rating, Large crabgrass ([7]; Rate 140 g/ha): 100; Plant response rating, H. beggarticks ([8]; Rate 35 g/ha): 0; Plant response rating, H. beggarticks ([8]; Rate 70 g/ha): 5; Plant response rating, H. beggarticks ([8]; Rate 140 g/ha): 100; Plant response rating, Common ragweed ([9]; Rate 35 g/ha): 0; Plant response rating, Common ragweed ([9]; Rate 70 g/ha): 40; Plant response rating, Common ragweed ([9]; Rate 140 g/ha): 50; Plant response rating, Johnsongrass ([10]; Rate 35 g/ha): 10; Plant response rating, Johnsongrass ([10]; Rate 70 g/ha): 30; Plant response rating, Johnsongrass ([10]; Rate 140 g/ha): 30"
Cc1cnc(-n2ccc(C(F)(F)F)n2)nc1C(=O)c1cccc(C(F)(F)F)c1 [Compound 59],,,,,,,,,,,,,10,9,10,9,10,9,9,8,
Cc1cnc(-n2ccc(C(F)(F)F)n2)nc1C(=O)c1ccc(C(F)(F)F)cc1 [Compound 65],,,,,,,,,,,,,5,4,8,5,4,5,4,10,
Cc1cnc(-n2ccc(C(F)(F)F)n2)nc1C(=O)c1cccc(OC(F)(F)F)c1 [Compound 66],0,0,0,80,80,100,80,90,0,0,0,100,,,,,,,,,"Plant response rating, Field bindweed ([3]; Rate 35 g/ha): 40; Plant response rating, Cocklebur ([4]; Rate 70 g/ha): 0; Plant response rating, Cocklebur ([4]; Rate 140 g/ha): 0; Plant response rating, Wild poinsettia ([6]; Rate 35 g/ha): 0; Plant response rating, Wild poinsettia ([6]; Rate 70 g/ha): 0; Plant response rating, Wild poinsettia ([6]; Rate 140 g/ha): 0; Plant response rating, Large crabgrass ([7]; Rate 35 g/ha): 80; Plant response rating, Large crabgrass ([7]; Rate 70 g/ha): 100; Plant response rating, Large crabgrass ([7]; Rate 140 g/ha): 100; Plant response rating, H. beggarticks ([8]; Rate 35 g/ha): 0; Plant response rating, H. beggarticks ([8]; Rate 70 g/ha): 0; Plant response rating, H. beggarticks ([8]; Rate 140 g/ha): 0; Plant response rating, Common ragweed ([9]; Rate 35 g/ha): 0; Plant response rating, Common ragweed ([9]; Rate 70 g/ha): 0; Plant response rating, Common ragweed ([9]; Rate 140 g/ha): 30; Plant response rating, Johnsongrass ([10]; Rate 35 g/ha): 0; Plant response rating, Johnsongrass ([10]; Rate 70 g/ha): 5; Plant response rating, Johnsongrass ([10]; Rate 140 g/ha): 10"
Cc1cnc(-c2ccc(C(F)(F)F)cc2)nc1C(=O)c1cccc(C(F)(F)F)c1 [Compound 73],,,,,,,,,,,,,9,8,10,9,9,9,9,9,
